Assay results: patent US10752640B2, “Compounds active towards bromodomains” (NUEVOLUTION A/S, priority 2014, dated 2020)

What was measured:
MV-4-11 tumor cells = assay: Cell viability assay (CellTiter-Glo); assay type: cell-based; conditions: Homo sapiens, MV4-11; MV-4-11 cells, 72 hours with compound
Procedure: Grow MV-4-11 tumor cells (ATCC CRL-9591) in suspension at 37° C. in a humidified atmosphere (5% CO2, 95% air, IMDM (Iscove's Modified Dulbecco's Medium) medium supplemented with 10% FBS (fetal bovine serum)) Seed cells at a density of 10.000 cells per well of a flat-bottomed 96 well plate in 50 μL of medium. After 24 hours, add 50 μL of test compound or DMSO control from a pre-generated compound dilution series in medium. After an additional 72 hours, add 100 μL of pre-mixed CellTiter-Glo reagent (Promega G7570) to each well, shake for two minutes to allow cell lysis followed by 10 minutes of incubation at room temperature without shaking. Read luminescence on an Envision reader (Perkin Elmer). The inhibition of cell viability (IC) can be expressed as follows:
[formula] IC data can be analyzed using GraphPad Prism, and IC50 data can be obtained using non-linear regression curve fit using log(compound) vs response (variable slope). The effect of compound on the viability of other cell lines can be assayed under similar conditions, taking into account the growth requirement of the individual cell line.

[1] = molecular target: T1, BRD4(1), first bromodomain of BRD4 (Homo sapiens, UniProt O60885); assay: Bromoscan assay BRD4(1) (DiscoveRx); assay type: binding; conditions: for Kd: first bromodomain of BRD4, read-out: BromoScan BRD4_1 Kd/nM; for BromoScan BRD4_2/1: ratio of Kd BRD4_2 to BRD4_1, selectivity for BRD4_1 over BRD4_2
T1 construct: BRD4(1) for the first bromodomain of BRD4; purchased DiscoveRx Corporation (assay service); host or cells: T7 phage grown in an E. coli host derived from the BL21 strain
Procedure: (§1) Bromoscan assays were run by DiscoveRx Corporation. The relevant assay names are BRD4(1) for the first bromodomain of BRD4 and BRD4(2) for the second bromodomain of BRD4. Further Bromoscan assays covering other bromodomains could be employed to establish the selectivity profile of a compound of interest. To run the Bromoscan assay, a T7 phage strain displaying the relevant bromodomain was grown in parallel in 24-well blocks in an E. coli host derived from the BL21 strain. E. coli were grown to log-phase and infected with T7 phage from a frozen stock (multiplicity of infection=0.4) and incubated with shaking at 32° C. until lysis (90-150 minutes). The lysates were centrifuged (5,000×g) and filtered (0.2 μm) to remove cell debris. Streptavidin-coated magnetic beads were treated with biotinylated small molecule or acetylated peptide ligands for 30 minutes at room temperature to generate affinity resins for bromodomain assays. The liganded beads were blocked with excess biotin and washed with blocking buffer (SeaBlock (Pierce), 1% BSA (bovine serum albumin), 0.05% Tween 20, 1 mM DTT (dithiothreitol)) to remove unbound ligand and to reduce non-specific phage binding. Binding reactions were assembled by combining bromodomains, liganded affinity beads, and test compounds in 1× binding buffer (17% SeaBlock, 0.33×PBS, 0.04% Tween 20, 0.02% BSA, 0.004% Sodium azide, 7.4 mM DTT). Test compounds were prepared as 1000× stocks in 100% DMSO and subsequently diluted 1:10 in monoethylene glycol (MEG) to create stocks at 100× the screening concentration (resulting stock solution is 10% DMSO/90% MEG). The compounds were then diluted directly into the assays such that the final concentration of DMSO and MEG were 0.1% and 0.9%, respectively. All reactions were performed in polystyrene 96-well plates in a final volume of 0.135 ml. The assay plates were incubated at room temperature with shaking for 1 hour and the affinity beads were washed with wash buffer (1×PBS, 0.05% Tween 20). The beads were then re-suspended in elution buffer (lx PBS, 0.05% Tween 20, 2 μM nonbiotinylated affinity ligand) and incubated at room temperature with shaking for 30 minutes. The bromodomain concentration in the eluates was measured by qPCR (quantitative real-time polymerase chain reaction).

[2] = molecular target: T2, BRD4(2), second bromodomain of BRD4 (Homo sapiens, UniProt O60885); assay: Bromoscan assay BRD4(2) (DiscoveRx); assay type: binding; conditions: read-out: BromoScan BRD4_2 Kd/nM
T2 construct: BRD4(2) for the second bromodomain of BRD4; purchased DiscoveRx Corporation (assay service); host or cells: T7 phage grown in an E. coli host derived from the BL21 strain
Procedure: as §1

BRD4 protein = BRD4 protein (Homo sapiens, UniProt O60885); assay: FRET assay, half maximal inhibitory concentration (IC50); assay type: binding; conditions: BRD4 protein 50 nM, Biotin-H4KAc4 peptide 12.5 nM; List of Classification
In short: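 HTRF: 50 nM BRD4 preincubated 30 min at room temperature with compound (10-fold series from 50 μM in 12.5% DMSO) in 50 mM HEPES pH 7.5, 100 mM NaCl, 0.05% CHAPS. Then 12.5 nM biotin-H4KAc4 peptide for 30 min, and anti-GST XL665 (10 nM) plus streptavidin cryptate (2.4 nM) with 0.4 M KF for 1 h. IC50 by variable-slope fit.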

IL-12p40 = assay: Cytokine release inhibition assay: LPS-induced cytokine release from human PBMCs; assay type: cell-based; conditions: PBMC, LPS 1 ng/mL, 18 h, read-out: LPS IC50 IL12p40 μM
Procedure: Cytokine release inhibition assay: LPS-induced cytokine release from human peripheral blood mononuclear cells (PBMCs)
200,000 PBMCs were seeded per well of a 96-well plate in 160 μL of medium. Afterwards, 20 μL of ten times concentrated working dilutions of compound or DMSO control were added per well. Cells were pre-incubated with compounds for 1 h at 37° C., 5% CO2, 95% humidity and 20 μL of ten times concentrated LPS was added to cells (Sigma L4391, final concentration 1 ng/mL). Following 18 h incubation at 37° C., 5% CO2, 95% humidity, plates were centrifuged for 10 minutes at 300×g. 150 μL of supernatants were collected for IL-12p40 determination. The concentration of IL-12p40 in supernatants was determined by sandwich ELISA (enzyme-linked immunosorbent assay) using capture and detection antibodies according to the manufacturer's instructions (R&D Systems DY1240). Data can be analyzed using GraphPad Prism, and IC50 data can be obtained using non-linear regression curve fit using log(compound) vs response (variable slope).

Row | SMILES | IC50 (MV-4-11 tumor cells) [nM] | Kd [1] [nM] | BromoScan BRD4_2/1 [1] | Kd [2] [nM] | IC50 (BRD4 protein) [nM] | IC50 (IL-12p40) [nM]
1 | Cc1cc(O)nc2ccc(NC(=O)c3cc(S(=O)(=O)N4CCCCC4)ccc3N3CCOCC3)cc12 [Compound-67, N-(2-hydroxy-4-methyl-6-quinolyl)-2-morpholino-5-(1-piperidylsulfonyl)benzamide] | 1200 | 6.2 | 190.9 | 1180 | < 200 | 
2 | Cc1cc(O)nc2c(C)cc(NC(=O)c3cc(S(=O)(=O)N(C)C)ccc3N3CCCC3)cc12 [Compound-107, 5-(dimethylsulfamoyl)-N-(2-hydroxy-4,8-dimethyl-6-quinolyl)-2-pyrrolidin-1-yl-benzamide] | 700 | 3.6 | 7.8 | 28 | < 200 | 
3 | Cc1cc(O)nc2ccc(NC(=O)c3cc(C4(N5CCOCC5)CC4)ccc3N3CCCC3)cc12 [Compound-113, N-(4-methyl-2-oxo-1,2-dihydroquinolin-6-yl)-5-(1-morpholinocyclopropyl)-2-(pyrrolidin-1-yl)benzamide] | 600 | 16 | 11.9 | 190 | < 200 | 
4 | Cc1cc(O)nc2ccc(NC(=O)c3cc(CN4CCN(C)CC4)ccc3N3CCCC3)cc12 [compound 1, N-(2-hydroxy-4-methylquinolin-6-yl)-5-((4-methylpiperazin-1-yl)methyl)-2-(pyrrolidin-1-yl)benzamide] | 600 | 13 | 25.4 | 330 | < 200 | 300
